Laboratory results reported in patent US4465631A, “5-Substituted-3-isoxazolecarboxylic acid derivatives” (Ajinomoto Company, Incorporated, priority 1982, dated 1984).
Converted amounts (≈) assume the structure as drawn. Structures can show the parent of a compound that is named as a salt. Where two headings read alike, the source gives them in different places.

Legend:
Test in all cases: Antibacterial activity (MIC)
Assay type in all cases: cell-based
[1] = test system: Achromobacter xylosoxidans
Excerpt: (§1) Regarding the products produced in the above mentioned Examples antibacterial activities against some microorganisms were obtained.

Alcaligenes faecalis = test system: Alcaligenes faecalis
Excerpt: as §1

Bacteroides fragilis = test system: Bacteroides fragilis
Excerpt: as §1

Escherichia coli = test system: Escherichia coli
Excerpt: as §1

Klebsiella pneumoniae = test system: Klebsiella pneumoniae
Excerpt: as §1

Proteus mirabilis = test system: Proteus mirabilis
Excerpt: as §1

Pseudomonas aeruginosa = test system: Pseudomonas aeruginosa
Excerpt: as §1

Pseudomonas cepacia = conditions: Burkholderia cepacia
Excerpt: as §1

Pseudomonas maltophilia = conditions: Stenotrophomonas maltophilia
Excerpt: as §1

Serratia marcescens = test system: Serratia marcescens
Excerpt: as §1

Staphylococcus aureus = test system: Staphylococcus aureus
Excerpt: as §1

MIC [1] | MIC (Alcaligenes faecalis) | MIC (Bacteroides fragilis) | MIC (Klebsiella pneumoniae) | MIC (Proteus mirabilis) | MIC (Pseudomonas aeruginosa) | MIC (Pseudomonas cepacia) | MIC (Pseudomonas maltophilia) | MIC (Serratia marcescens) | MIC (Staphylococcus aureus) | MIC (Escherichia coli; read-out: MIC) | SMILES | MIC (Escherichia coli)
1.56 µg/mL (≈ 2.92 µM) | 6.25 µg/mL (≈ 11.7 µM) | 6.25 µg/mL (≈ 11.7 µM) | 6.25 µg/mL (≈ 11.7 µM) | 0.78 µg/mL (≈ 1.46 µM) | 3.13 µg/mL (≈ 5.85 µM) | 3.13 µg/mL (≈ 5.85 µM) | 6.25 µg/mL (≈ 11.7 µM) | 12.5 µg/mL (≈ 23.4 µM) | ≤ 0.1 µg/mL | 12.5 µg/mL (≈ 23.4 µM) | Cc1ccc(-c2cc(C(=O)N[C@@H](C(=O)N[C@@H]3C(=O)N4[C@@H]3SC(C)(C)[C@@H]4C(=O)O)c3ccccc3)no2)cc1 [Example 1, α-[5-(4-methylphenyl)-3-isoxazolecarboxamido]-benzylpenicillin] | –
3.13 µg/mL | 6.25 µg/mL | 12.5 µg/mL | 12.5 µg/mL | 0.39 µg/mL | 6.25 µg/mL | 3.13 µg/mL | 12.5 µg/mL | 12.5 µg/mL | 0.2 µg/mL | 12.5 µg/mL | COc1cccc(-c2cc(C(=O)N[C@@H](C(=O)N[C@@H]3C(=O)N4[C@@H]3SC(C)(C)[C@@H]4C(=O)O)c3ccccc3)no2)c1 [Example 3, D-α-(5-m-anisylisoxazole-3-carboxamido)-benzylpenicillin sodium salt] | –
3.13 µg/mL | 12.5 µg/mL | 12.5 µg/mL | 12.5 µg/mL | 0.78 µg/mL | 6.25 µg/mL | 6.25 µg/mL | 12.5 µg/mL | 25 µg/mL | ≤ 0.1 µg/mL | 12.5 µg/mL | CC1(C)S[C@@H]2[C@H](NC(=O)[C@H](NC(=O)c3cc(-c4cccs4)on3)c3ccccc3)C(=O)N2[C@H]1C(=O)O [Example 8, D-α-[5-(2-thienyl)-isoxazole-3-carboxamido]-benzyl-penicillin sodium salt] | –

SMILES | MIC [1] | MIC (Alcaligenes faecalis) | MIC (Bacteroides fragilis) | MIC (Klebsiella pneumoniae) | MIC (Proteus mirabilis) | MIC (Pseudomonas aeruginosa) | MIC (Pseudomonas cepacia) | MIC (Pseudomonas maltophilia) | MIC (Serratia marcescens) | MIC (Staphylococcus aureus) | MIC (Escherichia coli; read-out: MIC) | MIC (Escherichia coli)
CC1(C)S[C@@H]2[C@H](NC(=O)C(C(=O)O)c3ccccc3)C(=O)N2[C@H]1C(=O)O (some centres unmarked) [Carbenicillin, reference compound] | > 100 µg/mL | > 100 µg/mL | > 100 µg/mL | > 100 µg/mL | 0.78 µg/mL (≈ 2.06 µM) | 25 µg/mL (≈ 66.1 µM) | > 100 µg/mL | > 100 µg/mL | > 100 µg/mL | 0.78 µg/mL (≈ 2.06 µM) | – | 12.5 µg/mL (≈ 33 µM)
